Patent US4520007A, “Anti-coagulants of the 4-hydroxycoumarin type and rodenticidal compositions (baits) comprising such anti-coagulants” (priority 1982, dated 1985)
Entries after “also recorded” stand apart in the source; their conditions may differ. Read-outs that look alike come from different tables or passages of the source.

Assays:
[1] = tested on: Prothrombin time (blood clotting); assay: Prothrombin time ED50 (3 days after intraperitoneal injection); format: in vivo, rat (male Wistar strain); details: for ED50: Rattus norvegicus, S100, ip, 72 h, read-out: 3-day ED50 (Prothrombin time ED50); for anticoagulant activity (comparison in words): compared with Brodifacoum or Difenacoum
Protocol: Compounds in accordance with the invention, and other substituted 4-hydroxy coumarin compounds not within the invention, including Brodifacoum, Difenacoum and Warfarin, were tested as described in the following examples. The Prothrombin time ED50 value is the most reliable method for measuring anticoagulant activity. The LD50 value is of significance in regard to the potency of the compound as a rodenticide.
A preliminary test was carried out to reliably rank the potential rodenticides in order of anticogulant potency.
The method used involved measurement of the Prothrombin time (a measure of blood clotting properties) which is based on that described in a paper by Quick, A. J., Stanley-Brown, M. and Bankoft. F. W. entitled "Study of Coagulation Defect in Haemophilia and in Jaundice" in American Journal of Medical Science, Vol. 190, pages 501-511, 1935. The compounds were dissolved in a 1:9 v/v mixture of triethanolamine and polyethylene glycol 200 Mol Wt and serially diluted to give appropriate doses in 1 ml per 1 kg of animal body weight. The doses were injected into the test animals by the interperitoneal route. Three days after injection, blood was withdrawn by cardiac puncture whilst the test animals (200-250 g Wistar strain male rats) were held under "Halothane" anaesthesia.
Three rats were used in each test of a given compound, and three prothrombin time determinations were carried out on each blood sample. Prothrombin times were determined using the modified one-stage method of Quick. The percentage extension time of each prothrombin time was determined by assigning 0% extension time to an arbitary prothrombin resting time of 12 seconds, and 100% extension time to a prothrombin time elevated to an arbitrary 212 seconds. Results were plotted on log-probability graph paper, the best-line fitted, and the prothrombin the ED50 read from the graph.

[2] = tested on: female rats Homozygous--Resistant Welsh strain; assay: 24h no-choice bait feeding test, resistant rats, deaths up to 21 days; format: in vivo, rat (female; details: 24h no-choice feed
Protocol: (§1) Appropriate amounts of Compounds 1,2,3 and 5 were dissolved in acetone and slurried onto rolled oats to give final bait concentrations of 20 ppm for Compounds 1 and 2; and 50 ppm for Compounds 3 and 5. Each bait was offered as a 24h no-choice feed to groups of five individually caged female rats Homozygous--Resistant Welsh strain; and similarly to groups of five individually caged male and female mice (Cambridge Cream Resistant strain).

[3] = tested on: male and female mice (Cambridge Cream Resistant strain); assay: 24h no-choice bait feeding test, resistant mice, deaths up to 21 days; format: in vivo, mouse (Cambridge Cream Resistant strain); details: 24h no-choice feed
Protocol: as §1

male rats, Wistar strain = assay: 5 day no-choice bait feeding test, deaths up to 21 days; format: in vivo, rat (male; details: 5 day no-choice feed
Protocol: Appropriate amounts of Compounds 1, and 3 and 5 were dissolved in acetone, serially diluted, and slurried onto rolled oats to give final bait concentrations of 5.0, 2.0, 0.5 and 0.2 ppm for Compound 1 and 20.0, 10.0, […] and 2.0 ppm for Compounds 3 and 5. Each bait was offered as a 5 day no-choice feed to groups of five individually caged male rats, Wistar strain.

[4] = tested on: vitamin K 2, 3-epoxide reductase; details: literature: Fasco et al 1982; Park et al 1982; cited from earlier work
[5] = tested on: Warfarin-resistant rodents; details: prior art; cited from earlier work
vitamin K reductase = details: literature: Fasco et al 1982; Park et al 1982; cited from earlier work
[6] = male Wistar rats 200-250 g, single intraperitoneal injection, blood taken three days after injection, ED50 = 50% extension of prothrombin time (0% = 12 s, 100% = 212 s)

Row | Compound | ED50 [1, 6] [mg/kg] | further results
1 | N#Cc1ccc(Oc2ccc(C3Cc4ccccc4C(c4c(O)c5ccccc5oc4=O)C3)cc2)cc1 (stereo not drawn) [Compound 10] | 0.41 | 
2 | O=c1oc2ccccc2c(O)c1C1CC(c2ccc(OCc3ccc(C(F)(F)F)cc3)cc2)Cc2ccccc21 (stereo not drawn) [Compound 13] | 0.32 | 
3 | O=c1oc2ccccc2c(O)c1C1CC(c2ccc(OCc3ccc(F)cc3)cc2)Cc2ccccc21 (stereo not drawn) [Compound 15] | 0.47 | 
4 | O=c1oc2ccccc2c(O)c1[C@@H]1C[C@@H](c2ccc(OCc3ccccc3)cc2)Cc2ccccc21 (relative stereo) [Compound 14, reference compound] | 4.3 | anticoagulant activity (comparison in words) [1]: activity much lower than similarly structured Difenacourm
5 | O=c1oc2ccccc2c(O)c1C1CC(c2ccc(/C=C/c3ccccc3)cc2)Cc2ccccc21 (stereo not drawn) [Compound 22] | 0.8 | 
6 | O=c1oc2ccccc2c(O)c1C1CC(c2ccc(C(F)(F)F)cc2)Cc2ccccc21 (stereo not drawn) [Compound 3] | 0.59 | Death up to 21 days, rats ([2]; bait 50.0 ppm): 5/5; Death up to 21 days, mice ([3]; bait 50.0 ppm): 3/5; Deaths up to 21 days (male rats, Wistar strain; bait 2.0 ppm): 5/5; Deaths up to 21 days (male rats, Wistar strain; bait 5.0 ppm): 5/5; Deaths up to 21 days (male rats, Wistar strain; bait 10.0 ppm): 5/5; Deaths up to 21 days (male rats, Wistar strain; bait 20.0 ppm): 5/5
7 | O=c1oc2ccccc2c(O)c1C1CC(c2ccc(CCCc3ccc(Cl)cc3)cc2)Cc2ccccc21 (stereo not drawn) [Compound 23] | 0.23 | anticoagulant activity (comparison in words) [1]: activity greater than Brodifacoum
8 | O=c1oc2ccccc2c(O)c1C1CC(c2ccc(-c3ccc(Br)cc3)o2)Cc2ccccc21 (stereo not drawn) [Compound 8] | 0.78 | 
9 | N#Cc1ccc(CCc2ccc(C3Cc4ccccc4C(c4c(O)c5ccccc5oc4=O)C3)cc2)cc1 (stereo not drawn) [Compound 19] | 0.9 | 
10 | O=c1oc2ccccc2c(O)c1C1CC(c2ccccc2-c2ccc(C(F)(F)F)cc2)Cc2ccccc21 (stereo not drawn) [Compound 27, reference compound] | > 10 | 
11 | CCCCCCC1Cc2ccccc2C(c2c(O)c3ccccc3oc2=O)C1 (stereo not drawn) [Compound 30, reference compound] | 14 | 
12 | N#Cc1ccc(C2Cc3ccccc3C(c3c(O)c4ccccc4oc3=O)C2)cc1 (stereo not drawn) [Compound 7] | 0.54 | 
13 | O=c1oc2ccccc2c(O)c1C1CC(c2ccc(-c3ccccc3)cc2)Cc2ccccc21 (stereo not drawn) [Difenacoum] |  | inhibiting ability, vitamin K 2,3-epoxide reductase [4]: have this inhibiting ability; effectiveness against Warfarin-resistant rodents [5]: effective against Warfarin-resistant rodents; ED50 [1]: 0.56 mg/kg; activity relative to Brodifacoum ([1]; rat, in vivo): about 36%; inhibiting ability, vitamin K reductase (vitamin K reductase): have this inhibiting ability
14 | O=c1oc2ccccc2c(O)c1C1CC(c2ccc(CCc3ccc(Br)cc3)cc2)Cc2ccccc21 (stereo not drawn) [Compound 17] | 0.37 | 
15 | O=c1oc2ccccc2c(O)c1[C@@H]1C[C@@H](c2ccc(-c3ccc(C(F)(F)F)cc3)cc2)Cc2ccccc21 (relative stereo) [Compound 24, 3[3-(4'-trifluoromethyl-4-yl)-1,2,3,4-tetrahydro-1-naphthyl]-4hydroxycoumarin] | 0.47 | 
16 | O=c1oc2ccccc2c(O)c1C1CC(c2ccc([N+](=O)[O-])cc2)Cc2ccccc21 (stereo not drawn) [Compound 9] | 0.8 | 

Row | Compound | ED50 [1, 6] [mg/kg] | further results
17 | O=c1oc2ccccc2c(O)c1C1CC(c2ccc(-c3ccc(Br)cc3)cc2)Cc2ccccc21 (stereo not drawn) [Brodifacoum] | 0.28 | inhibiting ability, vitamin K 2,3-epoxide reductase [4]: have this inhibiting ability; effectiveness against Warfarin-resistant rodents [5]: effective against Warfarin-resistant rodents; also recorded: effectiveness against Warfarin-resistant rodents; anticoagulant activity (comparison in words) [1]: particularly notable activity; inhibiting ability, vitamin K reductase (vitamin K reductase): have this inhibiting ability
18 | N#Cc1ccc(-c2ccc([C@@H]3Cc4ccccc4[C@H](c4c(O)c5ccccc5oc4=O)C3)cc2)cc1 (relative stereo) [Compound 2] | 0.31 | Death up to 21 days, rats ([2]; bait 20.0 ppm): 5/5; Death up to 21 days, mice ([3]; bait 20.0 ppm): 4/5
19 | O=c1oc2ccccc2c(O)c1[C@@H]1C[C@H](c2ccc(-c3ccc(C(F)(F)F)cc3)cc2)Cc2ccccc21 (relative stereo) [Compound 25, 3[3-(4'-trifluoromethyl-4-yl)-1,2,3,4-tetrahydro-1-naphthyl]-4hydroxycoumarin] | 0.46 | 
20 | O=c1oc2ccccc2c(O)c1C1CC(c2c(Cl)cccc2Cl)Cc2ccccc21 (stereo not drawn) [Compound 26, reference compound] | 10 | 
21 | O=c1oc2ccccc2c(O)c1C1CC(c2ccc3c(c2)CCCC3)Cc2ccccc21 (stereo not drawn) [Compound 28, reference compound] | 10 | 
22 | O=c1oc2ccccc2c(O)c1C1CC(Cc2ccc(Cl)cc2Cl)Cc2ccccc21 (stereo not drawn) [Compound 6] | 1.8 | 
23 | CC(=O)CC(c1ccccc1)c1c(O)c2ccccc2oc1=O (stereo not drawn) [Warfarin] | 5.2 | inhibiting ability, vitamin K 2,3-epoxide reductase [4]: have this inhibiting ability; inhibiting ability, vitamin K reductase (vitamin K reductase): have this inhibiting ability
24 | O=c1oc2ccccc2c(O)c1C1CC(c2ccc(OCc3ccc(Br)cc3)cc2)Cc2ccccc21 (stereo not drawn) [Compound 11] | 0.27 | anticoagulant activity (comparison in words) [1]: activity greater than Brodifacoum
25 | O=c1oc2ccccc2c(O)c1C1CC(c2ccc(/C=C/c3ccc(Br)cc3)cc2)Cc2ccccc21 (stereo not drawn) [Compound 21] | 0.8 | 
26 | O=c1oc2ccccc2c(O)c1C1CC(c2ccc(CCc3ccc(Cl)cc3)cc2)Cc2ccccc21 (stereo not drawn) [Compound 18] | 0.27 | anticoagulant activity (comparison in words) [1]: activity greater than Brodifacoum
27 | O=c1oc2ccccc2c(O)c1C1CC(c2ccc(OCc3ccc(Cl)c(Cl)c3)cc2)Cc2ccccc21 (stereo not drawn) [Compound 16] | 0.43 | 
28 | O=c1oc2ccccc2c(O)c1C1CC(CCCc2ccccc2)Cc2ccccc21 (stereo not drawn) [Compound 29, reference compound] | 14.1 | 
29 | N#Cc1ccc(COc2ccc(C3Cc4ccccc4C(c4c(O)c5ccccc5oc4=O)C3)cc2)cc1 (stereo not drawn) [Compound 12] | 0.8 | 
30 | O=c1oc2ccccc2c(O)c1C1CC(c2ccc(Oc3ccc(C(F)(F)F)cc3)cc2)Cc2ccccc21 (stereo not drawn) [Compound 20] | 0.23 | anticoagulant activity (comparison in words) [1]: activity greater than Brodifacoum
31 | N#Cc1ccc(-c2ccc([C@H]3Cc4ccccc4[C@H](c4c(O)c5ccccc5oc4=O)C3)cc2)cc1 (relative stereo) [Compound 1] | 0.45 | Death up to 21 days, rats ([2]; bait 20.0 ppm): 5/5; Death up to 21 days, mice ([3]; bait 20.0 ppm): 5/5; Deaths up to 21 days (male rats, Wistar strain; bait 0.2 ppm): 0/5; Deaths up to 21 days (male rats, Wistar strain; bait 0.5 ppm): 5/5; Deaths up to 21 days (male rats, Wistar strain; bait 2.0 ppm): 5/5; Deaths up to 21 days (male rats, Wistar strain; bait 5.0 ppm): 5/5
